Experimental data taken from US20260265246A1 (ICAHN SCHOOL OF MEDICINE AT MOUNT SINAI, priority 2021, published 2026).
Read-outs that look alike come from different tables or passages of the source.

Experiments:
5HT2A receptor [1] = molecular target: T1, 5HT2A receptor (Homo sapiens, UniProt P28223); assay: cell-based; set-up: expressed in transfected cells; host or cells: HEK293T cells, transient co-transfection; conditions: for Emax: HEK-293T
5HT2A receptor [2] = molecular target: T1, 5HT2A receptor; assay: biochemical; type: binding; set-up: expressed in transfected cells; crude membranes
5HT2A receptor [3] = molecular target: T1, 5HT2A receptor; assay: cell-based; set-up: expressed in transfected cells; host or cells: HEK293T cells, transient co-transfection; conditions: for Emax: HEK-293T; remark: listed apart in the source
[4] = 5HT2A β-Arr EC50 (nM), BRET1 beta-arrestin2 recruitment, HEK293T cells
[5] = 5HT2A Ki (nM), secondary radioligand binding, Ki from IC50 by Cheng-Prusoff
[6] = 5HT2A Gq EC50 (nM), BRET2 Gαq dissociation, HEK293T cells
[7] = 5HT2A β-Arr EC50 (nM), BRET1 beta-arrestin2 recruitment, HEK293T
[8] = BRET1 beta-arrestin2 recruitment, HEK293T, normalized to 5-HT
[9] = 5HT2A Ki (nM), secondary binding assay, Cheng-Prusoff
[10] = BRET2 Gαq dissociation, HEK293T, normalized to 5-HT
[11] = BRET2 Gαq dissociation, HEK293T, read-out: 5HTA Gq EC50
[12] = BRET1 beta-arrestin2 recruitment, HEK293T cells, normalized to 5-HT, read-out: 5HT2A β-Arr Emax (%)
[13] = BRET2 Gαq dissociation, HEK293T cells, normalized to 5-HT, read-out: 5HT2A Gq Emax (%)
[14] = BRET1 beta-arrestin2 recruitment, HEK293T cells, read-out: 5HT2A β-Arr EC50
[15] = secondary radioligand binding, Ki from IC50 by Cheng-Prusoff, read-out: 5HT2A Ki
[16] = BRET2 Gαq dissociation, HEK293T cells, read-out: 5HT2A Gq EC50

T1 sequence (P28223 whole entry): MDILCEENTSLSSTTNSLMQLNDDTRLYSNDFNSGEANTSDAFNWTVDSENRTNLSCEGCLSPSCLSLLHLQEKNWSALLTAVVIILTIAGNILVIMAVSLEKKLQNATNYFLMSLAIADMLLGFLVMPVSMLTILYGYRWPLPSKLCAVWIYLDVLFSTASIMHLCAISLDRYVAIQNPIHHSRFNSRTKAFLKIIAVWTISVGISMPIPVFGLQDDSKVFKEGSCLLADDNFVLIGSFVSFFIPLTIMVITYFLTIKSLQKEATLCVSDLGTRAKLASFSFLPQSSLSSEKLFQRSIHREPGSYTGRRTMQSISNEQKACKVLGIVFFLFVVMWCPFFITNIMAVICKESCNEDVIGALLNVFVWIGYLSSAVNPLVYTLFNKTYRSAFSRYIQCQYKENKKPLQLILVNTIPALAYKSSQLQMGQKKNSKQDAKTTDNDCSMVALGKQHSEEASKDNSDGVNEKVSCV

SMILES | EC50 (5HT2A receptor [1]; [4]) | Ki (5HT2A receptor [2]; [5]) | EC50 (5HT2A receptor [3]; [6]) | Emax (5HT2A receptor [1]; [12]) | Emax (5HT2A receptor [3]; [13]) | EC50 (5HT2A receptor [1]; [14]) | Ki (5HT2A receptor [2]; [15]) | EC50 (5HT2A receptor [3]; [16]) | also measured
CN1CCCC(c2c[nH]c3c(Cl)cccc23)C1 (single isomer, unassigned) [Example 113, 7-chloro-3-(1-methylpiperidin-3-yl)-1H-indole] | 1520 nM | 1430 nM | 279 nM |  |  |  |  |  | Emax (5HT2A receptor [1]; read-out: 5HT2A β-Arr Emax (%), BRET1 beta-arrestin2 recruitment, HEK293T cells, normalized to 5-HT): 62.6%; Emax (5HT2A receptor [3]; read-out: 5HT2A Gq Emax (%), BRET2 Gαq dissociation, HEK293T cells, normalized to 5-HT): 84.9%
Clc1cccc2c(C34CNCC3C4)n[nH]c12 (single isomer, unassigned) [Example 273, 3-(3-azabicyclo[3.1.0]hexan-1-yl)-7-chloro-1H-indazole] |  |  |  |  |  |  |  |  | EC50 (5HT2A receptor [1]; [7]): 1300 nM; 5HT2A β-Arr Emax (%) (5HT2A receptor [1]; [8]): 20.73%; Ki (5HT2A receptor [2]; [9]): 6300 nM; EC50 (5HT2A receptor [3]; 5HTA Gq EC50 (nM), BRET2 Gαq dissociation, HEK293T): 226 nM; 5HTA Gq Emax (%) (5HT2A receptor [3]; [10]): 81.0%
Clc1cccc2c(C34CNCC3C4)n[nH]c12 (single isomer, unassigned) [Example 274, 3-(3-azabicyclo[3.1.0]hexan-1-yl)-7-chloro-1H-indazole] |  |  |  |  |  |  |  |  | EC50 (5HT2A receptor [1]; [7]): 733 nM; 5HT2A β-Arr Emax (%) (5HT2A receptor [1]; [8]): 50.96%; Ki (5HT2A receptor [2]; [9]): 1580 nM; 5HTA Gq Emax (%) (5HT2A receptor [3]; [10]): 117.2%; EC50 (5HT2A receptor [3]; [11]): 61.5 nM
Clc1cccc2c(C34CNCC3C4)c[nH]c12 (single isomer, unassigned) [Example 277, 3-(3-azabicyclo[3.1.0]hexan-1-yl)-7-chloro-1H-indole] |  |  |  |  |  |  |  |  | EC50 (5HT2A receptor [1]; [7]): 212 nM; Emax (5HT2A receptor [1]; BRET1 beta-arrestin2 recruitment, HEK293T, normalized to 5-HT, read-out: 5HT2A β-Arr Emax (%)): 25.4%; Ki (5HT2A receptor [2]; secondary binding assay, Cheng-Prusoff, read-out: 5HT2A Ki): 80.5 nM; 5HTA Gq Emax (%) (5HT2A receptor [3]; [10]): 86.5%; EC50 (5HT2A receptor [3]; [11]): 83.8 nM
COc1cnc2[nH]cc(C3=CCCNC3)c2c1 [Example 2, 5-methoxy-3-(1,2,5,6-tetrahydropyridin-3-yl)-1H-pyrrolo[2,3-b]pyridine] | 1040 nM | 294 nM | 135 nM | 61.6% | 73.7% |  |  |  | 
Clc1cnc2[nH]cc(C3=CCCNC3)c2c1 [Example 3, 5-chloro-3-(1,2,5,6-tetrahydropyridin-3-yl)-1H-pyrrolo[2,3-b]pyridine] | 229 nM | 143 nM | 29.4 nM | 43.8% | 82% |  |  |  | 
COc1cnc2[nH]cc(C3=CCCN(C)C3)c2c1 [Example 6, 5-methoxy-3-(1-methyl-1,2,5,6-tetrahydropyridin-3-yl)-1H-pyrrolo[2,3-b]pyridine] | 792 nM | 695 nM | 44.1 nM | 33.4% | 65.9% |  |  |  | 
CN1CCC=C(c2c[nH]c3ncc(Cl)cc23)C1 [Example 7, 5-chloro-3-(1-methyl-1,2,5,6-tetrahydropyridin-3-yl)-1H-pyrrolo[2,3-b]pyridine] | 18.7 nM | 209 nM | 56.9 nM | 20.7% | 73.4% |  |  |  | 
CN1CCC=C(c2c[nH]c3ncc(-c4ccccc4)cc23)C1 [Example 8, 3-(1-methyl-1,2,5,6-tetrahydropyridin-3-yl)-5-phenyl-1H-pyrrolo[2,3-b]pyridine] | 811 nM | 156 nM | 67 nM | 58.3% | 95.5% |  |  |  | 
Cc1ccnc2[nH]cc(C3=CCCNC3)c12 [Example 9, 4-methyl-3-(1,2,5,6-tetrahydropyridin-3-yl)-1H-pyrrolo[2,3-b]pyridine] | 749 nM | 8510 nM | 489 nM | 72.8% | 74.2% |  |  |  | 
Clc1ccnc2[nH]cc(C3=CCCNC3)c12 [Example 11, 4-chloro-3-(1,2,5,6-tetrahydropyridin-3-yl)-1H-pyrrolo[2,3-b]pyridine] | 904 nM | 273 nM | 79.9 nM | 43.7% | 84.7% |  |  |  | 
Cc1ccnc2[nH]cc(C3=CCCN(C)C3)c12 [Example 13, 4-methyl-3-(1-methyl-1,2,5,6-tetrahydropyridin-3-yl)-1H-pyrrolo[2,3-b]pyridine] |  |  |  | 38.9% | 68.7% | 765 nM | 63.5 nM | 106 nM | 
COc1ccnc2[nH]cc(C3=CCCN(C)C3)c12 [Example 14, 4-methoxy-3-(1-methyl-1,2,5,6-tetrahydropyridin-3-yl)-1H-pyrrolo[2,3-b]pyridine] |  |  |  | 32.2% | 67.1% | 74.1 nM | 43 nM | 72.7 nM | 
CN1CCC=C(c2c[nH]c3nccc(Cl)c23)C1 [Example 15, 4-chloro-3-(1-methyl-1,2,5,6-tetrahydropyridin-3-yl)-1H-pyrrolo[2,3-b]pyridine] | 683 nM | 465 nM | 23.5 nM | 31.5% | 68.8% |  |  |  | 
Cc1cccc2[nH]cc(C3=CCCNC3)c12 [Example 17, 4-methyl-3-(1,2,5,6-tetrahydropyridin-3-yl)-1H-indole] |  |  |  | 42% | 85.7% | 147 nM | 11.5 nM | 22 nM | 
COc1cccc2[nH]cc(C3=CCCNC3)c12 [Example 18, 4-methoxy-3-(1,2,5,6-tetrahydropyridin-3-yl)-1H-indole] |  |  |  | 51.8% | 96.1% | 71.2 nM | 50.5 nM | 3.9 nM | 
Cc1cccc2[nH]cc(C3=CCCN(C)C3)c12 [Example 19, 4-methyl-3-(1-methyl-1,2,5,6-tetrahydropyridin-3-yl)-1H-indole] | 102 nM | 136 nM |  | 40.4% | 75.9% |  |  | 9 nM | 
COc1cccc2[nH]cc(C3=CCCN(C)C3)c12 [Example 20, 4-methoxy-3-(1-methyl-1,2,5,6-tetrahydropyridin-3-yl)-1H-indole] |  |  |  | 47.7% | 91% | 61.8 nM | 60 nM | 3 nM | 
CN1CCC=C(c2c[nH]c3cccc(-c4ccccc4)c23)C1 [Example 21, 3-(1-methyl-1,2,5,6-tetrahydropyridin-3-yl)-4-phenyl-1H-indole] | 358 nM | 14 nM | 874 nM | 15.1% | 59.6% |  |  |  | 
Clc1ccc2[nH]cc(C3=CCCNC3)c2c1 [Example 22, 5-chloro-3-(1,2,5,6-tetrahydropyridin-3-yl)-1H-indole] |  |  |  | 77.3% | 102% | 78.4 nM | 44.3 nM | 7.2 nM | 
CC(C)c1ccc2[nH]cc(C3=CCCNC3)c2c1 [Example 23, 5-isopropyl-3-(1,2,5,6-tetrahydropyridin-3-yl)-1H-indole] |  |  |  | 31.4% | 58.8% | 735 nM | 98.6 nM | 65.7 nM | 
Clc1ccc2c(C3=CCCNC3)c[nH]c2c1 [Example 31, 6-chloro-3-(1,2,5,6-tetrahydropyridin-3-yl)-1H-indole] | 1500 nM | 160 nM | 106 nM | 112% | 93% |  |  |  | 
CN1CCC=C(c2c[nH]c3cc(Cl)ccc23)C1 [Example 32, 6-chloro-3-(1-methyl-1,2,5,6-tetrahydropyridin-3-yl)-1H-indole] | 709 nM | 236 nM | 304 nM | 45.5% | 77.5% |  |  |  | 
Cc1cccc2c(C3=CCCNC3)c[nH]c12 [Example 41, 7-methyl-3-(1,2,5,6-tetrahydropyridin-3-yl)-1H-indole] | 1410 nM | 1380 nM | 234 nM | 83.2% | 92.6% |  |  |  | 
CN1CCC=C(c2c[nH]c3c(Cl)cccc23)C1 [Example 44, 7-chloro-3-(1-methyl-1,2,5,6-tetrahydropyridin-3-yl)-1H-indole] |  |  |  | 37.6% | 86.6% | 78.8 nM | 76.3 nM | 18.9 nM | 
C1=C(c2n[nH]c3ccccc23)CNCC1 [Example 45, 3-(1,2,5,6-tetrahydropyridin-3-yl)-1H-indazole] | 138 nM | 113 nM |  | 68.1% | 98.3% |  |  |  | 
CN1CCC=C(c2n[nH]c3ccccc23)C1 [Example 46, 3-(1-methyl-1,2,5,6-tetrahydropyridin-3-yl)-1H-indazole] | 115 nM |  |  | 21.9% | 62.6% |  | 87.3 nM | 3.3 nM | 
CCc1cccc2c(C3=CCCNC3)c[nH]c12 [Example 50, 7-ethyl-3-(1,2,5,6-tetrahydropyridin-3-yl)-1H-indole] |  | 244 nM |  | 79.1% | 92.6% | 67 nM |  | 4.7 nM | 
CCc1cccc2c(C3=CCCN(C)C3)c[nH]c12 [Example 52, 7-ethyl-3-(1-methyl-1,2,5,6-tetrahydropyridin-3-yl)-1H-indole] | 880 nM |  |  | 73.4% | 89.3% |  | 42 nM | 25 nM | 
